Columns and labels:
Rattus norvegicus [1] = species: Rattus norvegicus; assay: Tested for change in release of insulin from pancreatic islets of Sprague-Dawley rats at a concentration of 2.8 mM glucose; assay type: functional
Rattus norvegicus [2] = species: Rattus norvegicus; assay: Tested for change in release of insulin from pancreatic islets of Sprague-Dawley rats at a concentration of 16.7 mM glucose; assay type: functional

Row | Compound | Change (Rattus norvegicus [1]) [%] | Change (Rattus norvegicus [2]) [%]
1 | O[C@@H]1[C@H](O)[C@@H](O)C2C(C3CCC2[C@H](O)[C@@H]3O)[C@H]1O (stereo partly specified) | -18 | 44
2 | O[C@H]1[C@H](O)[C@@H](O)C=C[C@H]1O | 9 | -3
3 | O[C@@H]1[C@H](O)[C@H](O)C=C[C@H]1O | 27 | -20
4 | O[C@@H]1[C@H](O)[C@H](O)C=C[C@@H]1O | 0 | 0
5 | O[C@H]1[C@H](O)[C@@H](O)C=C[C@@H]1O | 41 | 50
6 | O[C@@H]1[C@H](O)[C@@H](O)C2C([C@H](O)CC[C@@H]2O)[C@H]1O (stereo partly specified) | -45 | -35
7 | O[C@@H]1[C@H](O)[C@@H](O)C=C[C@H]1O | 45 | -30
8 | C[C@@]1(O)CC2C(C[C@@]1(C)O)[C@H](O)[C@@H](O)[C@@H](O)[C@@H]2O (stereo partly specified) | -60 | 0
9 | CC(=O)O[C@@H]1[C@H](OC(C)=O)[C@@H](OC(C)=O)C2C(C3CCC2[C@H](O)[C@@H]3O)[C@H]1OC(C)=O (stereo partly specified) | -60 | -23
10 | OC1[C@H]2O[C@@H]3C4CCC(C(C42)[C@@H](O)[C@@H]1O)[C@H]3O (single isomer, unassigned) | 0 | -70
11 | CC(C)[C@@]12CC[C@@]3(C)C4C1[C@H](O[C@H]2[C@@H]3O)C(O)[C@@H](O)[C@@H]4O (single isomer, unassigned) | -60 | -45
12 | O[C@H]1[C@H](O)[C@H](O)C=C[C@H]1O | 12 | 15
13 | CC(C)[C@@]12CC[C@@](C)(C3C1[C@H](O)[C@@H](O)[C@@H](O)[C@@H]3O)[C@@H](O)[C@H]2O (stereo partly specified) | -30 | -30

Reference: ChEMBL document CHEMBL1149994, “Total synthesis of novel conduritol related compounds capable of modulating insulin release” (1994)
